Source: patent US20220323443A1, “COMBINATION THERAPY FOR CANCER TREATMENT” (TAKEDA PHARMACEUTICAL COMPANY LIMITED, priority 2019, published 2022)

Tests used:
HCT116 cancer cells = test: In vitro combination study with Compound 1, Cell Titer-Glo (ATP) cell viability, 72 h; type: cell-based; details: DNA damaging agent combined with Compound 1; 72 h;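 also: combination call from 10×10 dose matrices in duplicate, graded by synergy, with percent activity per well relative to DMSO vehicle controls on the same plate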
Method: (§10) Each combination pair was evaluated in an individual 384-well plate which contained variable doses of both compounds as single agents, as well as two, ten-by-ten matrices (in duplicate) that contained mixtures of the two test compounds. In brief, compounds were added to the cell test plates 16 hours after cell plating and then assessed for viability 72 hours later. Continuous cultures of tumor cells were maintained under standard cell culturing conditions (i.e. in a humidified chamber set at 37° C., containing atmosphere 5% carbon dioxide). […] Seventy-two hours after compound addition, ATP levels were measured to assess cell viability. Plating densities were chosen to ensure optimal linear growth over the 72 hour period.
(§11) Compound dilution and compound delivery to the assay plates were done on HighRes Robotic System (HighRes Biosolutions, Woburn, Mass., USA) with Echo™ Liquid Handler (Labcyte, Sunnyvale, Calif., USA). […] Next, these were used for compound transfer into cell assay plates. All wells were back-filled to give a constant percentage of DMSO.
(§12) The final DMSO concentration was held constant in all wells across the plate and was maintained at less than 0.5%. […] Cells treated with vehicle (DMSO) in two rows, or single compound serial dilutions in one plate columns/row served as the untreated control and single compound controls, respectively.
(§13) Compound activity in A549, COLO205, H460, HCT116, SW48, SW620 cancer cell lines was assessed using Cell Titer-Glo® (Promega [Madison, Wis., USA]). After 72 hours incubation, the plates were treated as per package insert protocol for the Promega Luminescence ATP Detection Systems. Briefly, 25 μL of cell lysis/substrate solution (provided in kit form) was added to each well and the plate was incubated at room temperature for 10 minutes. Luminescence was measured using a PHERAstar multi-label counter (BMG Labtech [Ortenberg, Germany]) or LEADseeker (GE Healthcare Life Sciences [Piscataway, N.J., USA]).
(§14) Numerical luminescence values were analyzed to generate EC50 curves and evaluate synergy. Raw Data reader files were uploaded along with automation workfiles that defined the plate and well contents. Percent activities were calculated for each well versus plate controls.
(§15) Each plate representing a single drug combination was analyzed separately. First, the viability measurements were normalized by scaling the data so that the median of the negative controls was 0 and the median of the positive controls was 100.
(§16) For the combination analysis, a response surface model was used to describe the relationship between the normalized viability and the drug concentrations. The data were fit to the model by minimizing the residual sum of squares. Based on the fitted response surface, plots of constant viability, called isobolograms, were produced.
(§17) The Combination Index and Nonlinear Blending were used as measures of drug synergy. To calculate Combination Index the 50% isobologram (which is the dose contour that has 50% viability) was used. […] A standard procedure was created to produce a call in order to characterize the viability effects for each combination (synergy, additivity, subadditivity, or antagonism). If the Combination Index existed then these measures were used to make the call.

DU-145 (Prostate) = test: In vivo combination study, Cell Derived Xenograft; parameters: species or system mouse; details: DU-145 (165 mm^3); Compound 1 60 mg/kg once daily Day 1-21; drug 40 mg/kg intraperitoneally Days 1,4,8,11,15,18
Method: (§1) To investigate in vivo antitumor activity of Compound 1 in combination with other agents, tests using Cell Derived Xenograft (CDX), Patient Derived Xenograft (PDX) and Syngeneic mouse tumor isograft model were conducted. Cells or Patient Derived Tumors were inoculated by one method of the following two methods (Method A and B) as shown Table 7.
Method A; Cells were maintained in either immune deficient nude mice or immune competent mice by subcutaneous inoculation of tumor cells at various concentrations into respected mice. Method B: Patient Derived Tumor s were maintained in nude mice by subcutaneous inoculation of tumor pieces (approx. 2×2×2 mm) into nude mice. […]
Tumor size was measured by caliper and tumor volume was estimated using the equation V=(LW^2)/2, where L and W are tumor length and width, respectively and reported in cubic millimeters. […]
For synergy analyses, the observed differences in the log tumor values were used to calculate AUC values for each animal. […] The AUC for the control, or vehicle, group was calculated using the predicted values from the pairwise models described above. […]
where Ak and Bk are the k^th animal in the individual treatment groups and ABk is the k^th animal in combination treatment group. […] The standard error of the synergy score was calculated as the square root of the sum of squared standard errors across groups A, B, and AB. […]

SW620 cancer cells = test: In vitro combination study with Compound 1, Cell Titer-Glo (ATP) cell viability, 72 h; type: cell-based; details: DNA damaging agent combined with Compound 1; 72 h;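 also: Ten-by-ten dose matrices of both drugs in 384-well plates, luminescent ATP read-out, synergy evaluated against single-agent and DMSO vehicle controls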
Method: as §10, §11, §12, §13, §14, §15, §16, §17

[1] = tested on: ovarian cancer (SKOV3) cell line; test: In vitro combination study for selected compounds, additional cell lines; type: cell-based; details: drug combined with Compound 1
Method: (§2) In vitro anti-proliferative effects of selected compounds were tested in additional cell lines, including ovarian cancer (SKOV3) and pancreatic cancer (MIA-PACA-2) cell lines.

H-1650 (Lung) = test: as above; type: cell-based; details: drug combined with Compound 1
Method: as §2

CALU6 (Lung) = test: as above; type: cell-based; details: drug combined with Compound 1
Method: as §2

A549 cancer cells = test: In vitro combination study with Compound 1, Cell Titer-Glo (ATP) cell viability, 72 h; type: cell-based; details: DNA damaging agent combined with Compound 1; 72 h;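 also: Ten-by-ten dose matrices of the two agents in duplicate, compounds added 16 h post-plating, activity relative to DMSO vehicle wells, call reflects synergy evaluation from luminescence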
Method: as §10, §11, §12, §13, §14, §15, §16, §17

PHTXM-97Pa (Pancreatic) = test: In vivo combination study, Patient Derived Xenograft; parameters: species or system mouse
Method: as §1
(§3) Method A; Cells were maintained in either immune deficient nude mice or immune competent mice by subcutaneous inoculation of tumor cells at various concentrations into respected mice. Method B: Patient Derived Tumor s were maintained in nude mice by subcutaneous inoculation of tumor pieces (approx. 2×2×2 mm) into nude mice. Mice with tumor size of approximately 50 mm^3 (e.g., 40-75 mm^3) for syngeneic mouse studies or 200 mm^3 (e.g., 110-270 mm^3) for xenograft studies were randomly assigned to dose groups on the day (Day 0) before start date of dosing.
(§4) Compound 1 (crystalline form I) was suspended in 0.5 w/v % methylcellulose and administered orally to mice. Antibodies which administered in the experiment were described in Table 8.
(§5) Tumor size was measured by caliper and tumor volume was estimated using the equation V=(LW^2)/2, where L and W are tumor length and width, respectively and reported in cubic millimeters.
(§6) These values were compared across treatment groups to assess whether the differences in the trends over time were statistically significant. To compare pairs of treatment groups, the following mixed-effects linear regression model was fit to the data using the maximum likelihood method:
(§7) For synergy analyses, the observed differences in the log tumor values were used to calculate AUC values for each animal. In instances when an animal in a treatment group was removed from the study, the last observed tumor value was carried forward through all subsequent time points. The AUC for the control, or vehicle, group was calculated using the predicted values from the pairwise models described above. We defined a measure of synergy as follows:
(§8) where Ak and Bk are the k^th animal in the individual treatment groups and ABk is the k^th animal in combination treatment group. AUCcd is the model-predicted AUC for the control group and was treated as a constant with no variability. The standard error of the synergy score was calculated as the square root of the sum of squared standard errors across groups A, B, and AB. The degrees of freedom were estimated using the Welch-Satterthwaite equation. A hypothesis test was performed to determine if the synergy score differed from 0. P values were calculated by dividing the synergy score by its standard error and tested against a t-distribution (two-tailed) with the above-calculated degrees of freedom.
(§9) The effect was classified into four different categories. It was considered synergistic if the synergy score was less than 0 and additive if the synergy score wasn't statistically different from 0. If the synergy score was greater than zero, but the mean AUC for the combination was lower than the lowest mean AUC among the two single agent treatments, then the combination was sub-additive. If the synergy score was greater than zero, and the mean AUC for the combination was greater than the mean AUC for at least one of the single agent treatments, then the combination was antagonistic.

[2] = tested on: PHTX-249Pa human primary pancreatic xenografts; test: as above; parameters: species or system mouse
Method: as §1, §3, §4, §5, §6, §7, §8, §9

H460 cancer cells = test: In vitro combination study with Compound 1, Cell Titer-Glo (ATP) cell viability, 72 h; type: cell-based; details: DNA damaging agent combined with Compound 1; 72 h;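 also: Ten-by-ten dose matrices of both drugs alongside single-agent dilutions, luminescence read 72 hours after compound addition, percent activity per well versus vehicle (DMSO) plate controls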
Method: as §10, §11, §12, §13, §14, §15, §16, §17

Panc02 (Pancreatic) = test: In vivo combination study, syngeneic mouse tumor isograft model
Method: as §1, §3, §4, §5, §6, §7, §8, §9

COLO205 cancer cells = test: In vitro combination study with Compound 1, Cell Titer-Glo (ATP) cell viability, 72 h; type: cell-based, human; details: DNA damaging agent combined with Compound 1; 72 h;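 also: Ten-by-ten dose matrices of both agents in duplicate plus single-agent dilutions, luminescent ATP read-out, percent activity per well relative to DMSO vehicle wells, synergy call from these matrices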

`Nc1ccn([C@@H]2O[C@H](CO)[C@@H](O)C2(F)F)c(=O)n1` [Gemcitabine] was tested, and the “Call, anti-proliferative effect of combination with Compound 1, HCT116” value (HCT116 cancer cells) was “Additivity (0.7 to 1.3)”, the “Result (combination with Compound 1, tumor growth)” value (“Result” below) (DU-145 (Prostate)) was “Additive” and the “Call, anti-proliferative effect of combination with Compound 1, SW620” value (SW620 cancer cells) was “Additivity (0.7 to 1.3)”. The “In vitro combination effect with Compound 1, Ovary SKOV3” value [1] was “Additive”, the “In vitro combination effect with Compound 1, Lung H-1650” value (H-1650 (Lung)) was “Antagonism” and the “In vitro combination effect with Compound 1, Lung CALU6” value (CALU6 (Lung)) was “Additive”. The “Call, anti-proliferative effect of combination with Compound 1, A549” value (A549 cancer cells) was “Antagonism (>2)”, the “Result” value (PHTXM-97Pa (Pancreatic); PHTXM-97Pa (180 mm^3), Compound 1 20 mg/kg once daily Day 1-21, drug 5 mg/kg intraperitoneally Days 1,4,8,11,15,18) was “subadditive” and the “Result” value (PHTXM-97Pa (Pancreatic); PHTXM-97Pa (180 mm^3), Compound 1 20 mg/kg once daily Day 1-21, drug 20 mg/kg intraperitoneally Days 1,4,8,11,15,18) was “Additive”. For the same molecule, the “Result” value (PHTXM-97Pa (Pancreatic); PHTXM-97Pa (180 mm^3), Compound 1 40 mg/kg once daily Day 1-21, drug 5 mg/kg intraperitoneally Days 1,4,8,11,15,18) was “subadditive”, the “Result” value (PHTXM-97Pa (Pancreatic); PHTXM-97Pa (180 mm^3), Compound 1 40 mg/kg once daily Day 1-21, drug 20 mg/kg intraperitoneally Days 1,4,8,11,15,18) was “subadditive” and the “Result” value (PHTXM-97Pa (Pancreatic); PHTXM-97Pa (210 mm^3), Compound 1 40 mg/kg once daily Day 1-21, drug 20 mg/kg intraperitoneally Days 1,4,8,11,15,18) was “subadditive”. The “Result” value (PHTXM-97Pa (Pancreatic); PHTXM-97Pa (210 mm^3), Compound 1 40 mg/kg once daily Day 1-21, drug 40 mg/kg intraperitoneally Days 1,4,8,11,15,18) was “subadditive”, the “Result” value (PHTXM-97Pa (Pancreatic); PHTXM-97Pa (210 mm^3), Compound 1 60 mg/kg once daily Day 1-21, drug 20 mg/kg intraperitoneally Days 1,4,8,11,15,18) was “subadditive” and the “Result” value (PHTXM-97Pa (Pancreatic); PHTXM-97Pa (210 mm^3), Compound 1 60 mg/kg once daily Day 1-21, drug 40 mg/kg intraperitoneally Days 1,4,8,11,15,18) was “subadditive”. The “Result” value ([2]; PHTX-249Pa (165 mm^3), Compound 1 40 mg/kg once daily Day 1-21, drug 20 mg/kg intraperitoneally Days 1,4,8,11,15,18) was “Additive”, the “Result” value ([2]; PHTX-249Pa (165 mm^3), Compound 1 40 mg/kg once daily Day 1-21, drug 40 mg/kg intraperitoneally Days 1,4,8,11,15,18) was “subadditive” and the “Result” value ([2]; PHTX-249Pa (165 mm^3), Compound 1 60 mg/kg once daily Day 1-21, drug 20 mg/kg intraperitoneally Days 1,4,8,11,15,18) was “Additive”. For the same molecule, the “Result” value ([2]; PHTX-249Pa (165 mm^3), Compound 1 60 mg/kg once daily Day 1-21, drug 40 mg/kg intraperitoneally Days 1,4,8,11,15,18) was “subadditive”, the “Result” value ([2]; PHTX-249Pa (180 mm^3) FIG. 6A, Compound 1 20 mg/kg once daily Day 1-21, drug 5 mg/kg intraperitoneally Days 1,4,8,11,15,18) was “Synergistic” and the “Result” value ([2]; PHTX-249Pa (180 mm^3) FIG. 6A, Compound 1 20 mg/kg once daily Day 1-21, drug 20 mg/kg intraperitoneally Days 1,4,8,11,15,18) was “Additive”. For the same molecule, the “Result” value ([2]; PHTX-249Pa (180 mm^3) FIG. 6A, Compound 1 40 mg/kg once daily Day 1-21, drug 5 mg/kg intraperitoneally Days 1,4,8,11,15,18) was “Additive”, the “Result” value ([2]; PHTX-249Pa (180 mm^3) FIG. 6A, Compound 1 40 mg/kg once daily Day 1-21, drug 20 mg/kg intraperitoneally Days 1,4,8,11,15,18) was “subadditive” and the antitumor activity ([2]; combined with Compound 1, PHTX-249 Pa human primary pancreatic xenografts, FIG. 6A) was “strong antitumor activity compared to either single treatment alone”. The “Call, anti-proliferative effect of combination with Compound 1, H460” value (H460 cancer cells) was “Subadditivity (1.3 to 2)”, the “Result” value (Panc02 (Pancreatic); Panc02 (75 mm^3), Compound 1 60 mg/kg orally QD day 0-20, drug 5 mg/kg intraperitoneally QD on Day 0,3,6,9,12) was “Additive” and the CR per group (Panc02 (Pancreatic); note to Table 9, by note order: Gemcitabine study in Panc02 (75 mm^3)) was 0 CR in Gemcitabine group and 0 CR in Compound 1 group, and 0 CR in Compound 1/Gemcitabine combo group. For the same molecule, the “Call, anti-proliferative effect of combination with Compound 1, COLO205” value (COLO205 cancer cells) was “Additivity (0.7 to 1.3)”.
